Six compounds from patent US4812162A, “Indole derivatives and their use as fungicides, insecticides and pesticides” (Imperial Chemical Industries PLC, priority 1986, dated 1989) can be followed below.

Series [1] concerns Blattella germanica (cockroach nymphs). The experiment in a line: insecticidal properties, residual test, Blattella germanica nymphs (BG). In kind it is in vivo. The following applies: 500 ppm, plastic pot, 3 days. The text has this:
(§1) "SYNPERONIC" is a Registered Trade Mark.

A further series deals with Plasmorpara viticola. The experiment in a line: fungicidal activity against foliar fungal diseases of plants, Plasmorpara viticola (vine). In kind it is in vivo. The following applies: 100 ppm foliar spray plus root drench ca. 40 ppm a.i./dry soil, 1-2 days before inoculation.
Another series concerns Pyricularia oryzae. It counts as in vivo. The following applies: 100 ppm foliar spray plus root drench ca. 40 ppm a.i./dry soil, 1-2 days before inoculation.
Series [2] concerns Tetranychus urticae (spider mites - ova). Put plainly: insecticidal properties, contact test, Tetranychus urticae ova (TUe). In kind it is in vivo. To be noted: 500 ppm, French bean leaf, 6 days.
Excerpt: as §1

Series [3] relates to Meloidogyne incognita (tomato root knot eelworm - larvae). The experiment in a line: nematode test, residual, Meloidogyne incognita larvae (MI). In kind it is in vivo. To be noted: 250 ppm, semi in-vitro, 7 days.
Excerpt: as §1
MI Meloidogyne incognita

The test system of series [4] is Diabrotica balteata (rootworm larvae). The experiment in a line: insecticidal properties, residual test, Diabrotica balteata (DB). In kind it is in vivo. To be noted: 500 ppm, filter paper/maize seed, 3 days.
Excerpt: as §1

The next series relates to Erysiphe graminis. The experiment in a line: fungicidal activity against foliar fungal diseases of plants, Erysiphe graminis (barley). In kind it is in vivo. The following applies: 100 ppm foliar spray plus root drench ca. 40 ppm a.i./dry soil, inoculated 24 hours before treatment.
For the next series, the system named is Puccinia recondita. Put plainly: fungicidal activity against foliar fungal diseases of plants, Puccinia recondita (wheat). In kind it is in vivo. To be noted: 100 ppm foliar spray plus root drench ca. 40 ppm a.i./dry soil, 1-2 days before inoculation.
Series [5] has as its system Musca domestica (houseflies - adults). The experiment in a line: insecticidal properties, contact test, Musca domestica adults (MDa). It counts as in vivo. To be noted: 500 ppm, cotton wool/sugar, 1 day.
Excerpt: as §1

The next series relates to Rice. Put plainly: plant growth regulating, whole plant screen, rice. It counts as in vivo, Rice (Ishikari). To be noted: rice (RC); 4000 ppm (4 kg/ha); after 2-6 weeks. As for the experimental part:
(§2) This Example illustrates the plant growth regulating properties of compounds 1 and 2 when tested on a whole plant screen against various species of plant. The plant species are identified in Table IV with the leaf stage at which they were sprayed.
(§3) A formulation of each chemical was applied at 4000 ppm (4 kg/ha in a 1000 l/ha field volume) using a tracksprayer and a SS8004E (Teejet) nozzle.
(§4) After spraying, the plants were grown in a glasshouse with 25° C. day/22° C. night temperatures. Supplementary lighting was supplied when necessary to provide an average photoperiod of 16 hours (14 hours minimum).
(§5) After 2-6 weeks in the glasshouse, depending on species and time of year, the plants were visually assessed for morphological characteristics against a control plant sprayed with a blank formulation.

The subject of the next series is Venturia inaequalis. Put plainly: fungicidal activity against foliar fungal diseases of plants, Venturia inaequalis (apple). It counts as in vivo. To be noted: 100 ppm foliar spray plus root drench ca. 40 ppm a.i./dry soil, 1-2 days before inoculation.
Series [6] relates to Chilo partellus (maize and sorghum stem borers - larvae). The experiment in a line: insecticidal properties, residual test, Chilo partellus larvae (CPA). To be noted: 500 ppm, oilseed rape, 3 days.
Procedure: The activity of the compound was determined using insect, mite and nematode pests. The compound was used in the form of a liquid preparation containing 500 parts per million (ppm) by weight of the compound except for the test on Meloidogyne incognita when a liquid preparation of 250 ppm by weight was used. The preparation was made by dissolving the compound in acetone and diluting the solution with water containing 0.1% by weight of a wetting agent sold under the trade name "SYNPERONIC" NX until the liquid preparation contained the required concentration of the product.
The test procedure adopted with regard to each pest was basically the same and comprised supporting a number of the pests on a medium which was usually a host plant or a foodstuff on which the pests feed, and treating either or both the pests and the medium with the preparation. The mortality of the pests was then assessed at periods usually varying from one to seven days after the treatment.
The results of the tests are given in Table VII as a grading of mortality designated as 9, 5 or 0 wherein 9 indicates 80-100% mortality, 5 indicates 50-79% mortality and 0 indicates less than 50% mortality.
Series [7] concerns Tetranychus urticae (spider mites - adults). The experiment in a line: insecticidal properties, contact test, Tetranychus urticae adults (TUa). To be noted: 500 ppm, French bean leaf, 3 days. It counts as in vivo.
Excerpt: as §1

Another series has as its system Cercospora arachidicola. Put plainly: fungicidal activity against foliar fungal diseases of plants, Cercospora arachidicola (peanut). It counts as in vivo. To be noted: 100 ppm foliar spray plus root drench ca. 40 ppm a.i./dry soil, 1-2 days before inoculation.
The subject of a further series is Myzus persicae (aphids). Put plainly: insecticidal properties, contact test, Myzus persicae (MP). It counts as in vivo. To be noted: 500 ppm, Chinese Cabbage leaf, 3 days.
Excerpt: as §1

The next series deals with Apple. Put plainly: plant growth regulating, whole plant screen, apple. In kind it is in vivo, Apple (Red Delicious). The following applies: apple (AP); 4000 ppm (4 kg/ha); after 2-6 weeks. As for the experimental part: as §2, §3, §4, §5
Series [8] concerns Heliothis virescens (tobacco budworm - larvae). The experiment in a line: insecticidal properties, residual test, Heliothis virescens larvae (HV). In kind it is in vivo. To be noted: 500 ppm, cotton leaf, 3 days.
Excerpt: as §1

Series [9] has as its system Nilaparvata lugens (brown plant hopper - nymphs). Put plainly: insecticidal properties, contact test, Nilaparvata lugens nymphs (NL). In kind it is in vivo. The following applies: 500 ppm, rice plant, 3 days.
Excerpt: as §1

Series [10] relates to Musca domestica (houseflies - adults). Put plainly: knockdown properties against Musca domestica (MDk). It counts as in vivo. The following applies: 2000 ppm sprayed directly; inverted cup; knockdown at 15 minutes, mortality at 48 hours; 2 days. As for the experimental part:
A sample of compound 1 was diluted with 2 mls acetone and made up of a 2000 ppm solution with 0.1% aqueous synperonic solution. The solution (1 ml) was then sprayed directly onto twenty mixed sex houseflies held in a drinking cup. Immediately after spraying the cups were inverted and left to dry. An assessment of knockdown was made when the cups were righted 15 minutes later. The flies were then provided with a 10% sucrose solution on a cotton wool pad, and held for 48 hours in a holding room conditioned at 25° C. and 65% relative humidity before a mortality assessment was made.

The test system of the next series is Phytophthora infestans. In kind it is in vivo. To be noted: 100 ppm foliar spray plus root drench ca. 40 ppm a.i./dry soil, 1-2 days before inoculation.
A further series has as its system Tomato. Put plainly: plant growth regulating, whole plant screen, tomato. In kind it is in vivo, Tomato (Ailsa Craig). To be noted: tomato (TO); 4000 ppm (4 kg/ha); after 2-6 weeks. The protocol:
as §2, §3, §4, §5

For a further series, the system named is Maize. The experiment in a line: plant growth regulating, whole plant screen, maize. In kind it is in vivo, Maize (Earliking). The following applies: maize (MZ); 4000 ppm (4 kg/ha); after 2-6 weeks. As for the experimental part: as §2, §3, §4, §5

Consider `CO/C=C(/C(=O)OC)n1ccc2ccccc21` [Compound 1], for which the “grading of mortality, BG” value in series [1] was 0 (less than 50% mortality). Further, the “disease control, PLASMORPARA VITICOLA (VINE)” value (“disease control … (VINE)” for short) in the series with Plasmorpara viticola is recorded as 4. The “disease control, P[…] (RICE)” value with Pyricularia oryzae was 3 (trace--5% of disease on untreated plants). Besides, the “grading of mortality, TUe” value in series [2] was 0 (less than 50% mortality). Further, the “grading of mortality, MI” value in [3] is reported as 0 (less than 50% mortality). Besides, the “grading of mortality, DB” value in [4] is reported as 0 (less than 50% mortality). The “disease control, ERYSIPHE GRAMINIS (BARLEY)” value (from here on “disease control … (BARLEY)”) in the series with Erysiphe graminis is listed as 1 (26-59% of disease on untreated plants). Besides, in the series on Puccinia recondita, the “disease control, PUCCINIA RECONDITA (WHEAT)” value (shortened to “disease control … (WHEAT)”) was 0 (60-100% of disease on untreated plants). The “grading of mortality, MDa” value in series [5] is 0 (less than 50% mortality). Moreover, in the series on Rice, the “I = Interligular or internodal length reduction” value is 1 (10-30%) and the “R = Retardation” value is recorded as 1 (10-30%). Moreover, the “disease control, VENTURIA INAEQUALIS (APPLE)” value (from here on “disease control … (APPLE)”) in the series on Venturia inaequalis is on record as 3 (trace--5% of disease on untreated plants). Besides, the “grading of mortality, CPA” value in series [6] is reported as 9 (80-100% mortality). In addition, in [7], the “grading of mortality, TUa” value was 9 (80-100% mortality). Also, the “disease control, CERCOSPORA ARACHIDICOLA (PEANUT)” value (“disease control … (PEANUT)” below) in the series on Cercospora arachidicola is 3 (trace--5% of disease on untreated plants). Also, the “grading of mortality, MP” value with Myzus persicae (aphids) was 0 (less than 50% mortality). For the same compound, in the series with Apple, the “I = Interligular or internodal length reduction” value is given as 1 (10-30%) and the “R = Retardation” value is 1 (10-30%). For the same compound, in series [8], the “grading of mortality, HV” value is listed as 0 (less than 50% mortality). Also, in [9], the “grading of mortality, NL” value is on record as 0 (less than 50% mortality). Also, the “grading of mortality, MDk (knockdown)” value in series [10] is 0 (less than 50% mortality).

In the case of `CCOc1ccc2ccn(/C(=C\OC)C(=O)OC)c2c1` [Compound 2, (Z)-methyl 3-methoxy-2-[6-ethoxyindol-1-yl]acrylate], the “disease control … (VINE)” value in the series with Plasmorpara viticola was found to be 4. Moreover, the “disease control, P[…] (RICE)” value in the series on Pyricularia oryzae was found to be 4. For the same compound, in the series with Erysiphe graminis, the “disease control … (BARLEY)” value is recorded as 4. For the same compound, the “disease control … (WHEAT)” value in the series on Puccinia recondita turned out to be 4. In addition, the “disease control … (APPLE)” value with Venturia inaequalis is 4. The “disease control … (PEANUT)” value in the series on Cercospora arachidicola is given as 4. Also, the “disease control, PH[…] (TOMATO)” value in the series with Phytophthora infestans amounted to 4. In addition, in the series with Tomato, the “A = Apical damage” value is listed as 3 (61-100%), the “I = Interligular or internodal length reduction” value is reported as 3 (61-100%), the “P = Phytotoxicity” value is given as 2 (11-30%) and the “R = Retardation” value was 3 (61-100%). Moreover, the “T = Tillering or side shooting” value with Tomato was 1 (10-30%). Besides, in the series on Maize, the “A = Apical damage” value is given as 2 (31-60%) and the “G = Greening effect” value is on record as 1 (10-30%).

`CO/C=C(/C(=O)OC)n1ccc2ccc(-c3ccccc3)cc21` [Compound 3, (Z)-methyl 3-methoxy-2-[6-phenylindol-1-yl]acrylate]: in the series with Plasmorpara viticola, the “disease control … (VINE)” value turned out to be 4. In the series with Pyricularia oryzae, the “disease control, P[…] (RICE)” value worked out at 4. Also, the “disease control … (BARLEY)” value in the series with Erysiphe graminis is 2 (6-25% of disease on untreated plants). Also, the “disease control … (WHEAT)” value with Puccinia recondita was determined as 4. Further, the “disease control … (APPLE)” value in the series with Venturia inaequalis amounted to 4. Also, the “disease control, PH[…] (TOMATO)” value with Phytophthora infestans is on record as 4.

As to `CO/C=C(/C(=O)OC)n1ccc2ccc(OC)cc21` [Compound 4], the “disease control … (VINE)” value in the series with Plasmorpara viticola is 4. Further, the “disease control, P[…] (RICE)” value in the series with Pyricularia oryzae worked out at 4. Besides, in the series on Erysiphe graminis, the “disease control … (BARLEY)” value is reported as 2 (6-25% of disease on untreated plants). In addition, the “disease control … (WHEAT)” value in the series on Puccinia recondita is listed as 1 (26-59% of disease on untreated plants). Further, the “disease control … (APPLE)” value with Venturia inaequalis is 4. Also, the “disease control … (PEANUT)” value in the series on Cercospora arachidicola is 3 (trace--5% of disease on untreated plants). Also, the “disease control, PH[…] (TOMATO)” value in the series on Phytophthora infestans is recorded as 0 (60-100% of disease on untreated plants).

Regarding `CO/C=C(/C(=O)OC)n1ccc2ccc(Br)cc21` [Compound 7], the “disease control … (VINE)” value with Plasmorpara viticola worked out at 4. In the series on Erysiphe graminis, the “disease control … (BARLEY)” value was determined as 4. For the same compound, the “disease control … (WHEAT)” value in the series on Puccinia recondita was 4. The “disease control … (APPLE)” value with Venturia inaequalis was determined as 4. Besides, the “disease control … (PEANUT)” value in the series on Cercospora arachidicola is reported as 4. In addition, the “disease control, PH[…] (TOMATO)” value with Phytophthora infestans is 4.

For the compound `CO/C=C(/C(=O)OC)n1ccc2ccc(I)cc21` [Compound 8], the “disease control … (VINE)” value in the series on Plasmorpara viticola turned out to be 4. Also, the “disease control … (BARLEY)” value with Erysiphe graminis is listed as 4. Moreover, the “disease control … (WHEAT)” value with Puccinia recondita was found to be 4. For the same compound, in the series on Venturia inaequalis, the “disease control … (APPLE)” value is listed as 4. Moreover, the “disease control … (PEANUT)” value with Cercospora arachidicola was determined as 4. Further, the “disease control, PH[…] (TOMATO)” value in the series on Phytophthora infestans was 4.
